Reference: patent publication US9416181B2, “Compositions for cell culture and methods of using the same” (AbbVie Inc., priority 2013, dated 2016)

Legend:
Format in all cases: cell-based, Chinese Hamster
[1] = test system: Cell Line 1 (CHO) expressing Antibody 1; assay: Aggregate content (SEC) of Antibody 1, Cell Line 1 shake flask fed-batch culture; conditions: shaker
Experimental: A recombinant Chinese Hamster Ovary (CHO) cell line (Cell Line 1) expressing a humanized monoclonal antibody (Antibody 1) was evaluated in 2 different cultures vessels (shaker flasks and 3 L laboratory-scale bioreactors). The cell line was of CHO DUX-B11 origin based on a DHFR (dihydrofolate reductase) expression system and cultured in a chemically defined basal media, and fed periodically with a chemically-defined feed media (CDFM). The media utilized throughout all of the experiments were chemically-defined, and both animal-component free, and protein-free. Each of the respective media were supplemented as needed with selected bioflavonoids to evaluate for their potential impact on the resulting acidic species profile. In preparation of the cultures, the cell lines were serially expanded through separate seed train inoculums to generate enough cells for inoculation. Process conditions utilized during the cultures were slightly different depending on the culture scale, but similar within each scale to the respective non-bioflavonoid supplemented control conditions. All bioflavonoids utilized were purchased from Sigma-Aldrich (St. Louis, Mo.).
Protein A purified antibody samples from Cell Line 1 were diluted when necessary to 0.5-5 mg/mL in 1×PBS, and measured on a TSKgel G3000SWXL column (Tosoh Bioscience, South San Francisco, Calif.) using an isocratic gradient on an HPLC system with detection at 280 nm. High molecular weight (HMW), monomer, and low molecular weight (LMW) species were assigned and subsequently quantitated based on the chromatographic profile.
In this Example, EGCG was added into the feed (cell culture medium) at the concentration range of 5 mg/L (low), 20 mg/L (mid) and 50 mg/L (high) in a shaker experiment to determine the impact of EGCG on product quality of a humanized monoclonal antibody (Antibody 1). Detailed cell culture conditions are as described in Table 1.

[2] = test system: Cell Line 3 (CHO) expressing DVD1; assay: Acidic species variants (WCX-10) of DVD1, Cell Line 3 shake flask culture; conditions: shaker
Experimental: (§1) Four different recombinant Chinese Hamster Ovary (CHO) cell lines expressing four different recombinant glycoproteins were evaluated in either shaker flask culture, or 3 L laboratory scale bioreactors. Cell Line 1 was genetically engineered to express Antibody 1, Cell Line 2 was genetically engineered to express Antibody 2, Cell Line 3 was genetically engineered to express dual variable domain immunoglobulin 1 (DVD1) and Cell Line 4 was genetically engineered to express dual variable domain immunoglobulin 2 (DVD2).
Charge Heterogeneity via Weak Cation Exchange Chromatography-Samples were analyzed using an HPLC system equipped with a ProPac WCX-10 analytical column (Thermo Scientific, Sunnyvale, Calif.). Approximately 100 μg of sample was loaded in 6% Buffer B (10 mM sodium phosphate, 500 mM NaCl, pH 5.5) and 94% Buffer A (10 mM sodium phosphate, pH 7.5). The column was run at a flow rate of 1.0 mL/min. The protein was eluted from the column by increasing the buffer B composition from 6% to 16% over 20 minutes. The protein peaks were measured using UV absorbance at 280 nm as the peaks eluted from the column. The column was regenerated using 100% buffer B followed be a re-equilibration period using initial condition before the injection of the next sample. Peaks eluting before the main peak were termed ‘acidic peaks’ and peaks eluting after the main peak were called ‘basic peaks’ (FIG. 2).
To assess the impact of EGCG on acidic region variants on recombinant proteins, dual variable domain immunoglobulin 1 (DVD1) was examined. EGCG was added at the concentrations of 0.02 g/L, 0.05 g/L, 0.1 g/L and 0.2 g/L into the feed in a shaker experiment (See Table 2). […] At the concentration of 0.2 g/L, EGCG led to 15% viability decrease and 28% productivity loss compared to control condition. Upon measurement of the acidic species variants, EGCG supplement reduced the total acidic species in a dose-dependent manner. At the concentrations of 0.02 g/L, 0.05 g/L, 0.1 g/L and 0.2 g/L respectively, EGCG reduced the total acidic species content 5%, 10%, 17% and 22% relatively compared to the unsupplemented control (FIG. 13D).

[3] = test system: Cell Line 2 (CHO) expressing Antibody 2; assay: Cell culture performance, Cell Line 2 lab-scale bioreactor culture; conditions: 0.1 g/L in 100% feed and equivalent in 50% feed
Experimental: as §1
(§2) Viable cell density (VCD) and cell viability values were measured through trypan blue exclusion via Cedex automated cell counters (Roche Applied Science, Indianapolis, Ind.), glucose and lactate values were measured with a ABL-805 (Radiometer Medical, Denmark) blood gas analyzer. Offline pH, dissolved oxygen (DO), and pCO2 (Dissolved carbon dioxide) measurements were performed as needed with an ABL-805 (Radiometer Medical, Denmark) blood gas analyzer. Osmolality was measured as needed on a Multi-Osmette 2430 osmometer (Precision Systems, Natick, Mass.).
(§3) Protein A Affinity Chromatography-Antibody titers were measured from crude cell culture harvests on a Poros ATM (Life Technologies, Carlsbad, Calif.) affinity column using an HPLC system operating with a low pH, step elution gradient with detection at 280 nm. […]

[4] = test system: Cell Line 2 (CHO) expressing Antibody 2; assay: Cell culture performance, Cell Line 2 shake flask culture; conditions: shaker
Experimental: as §1
DVD1 and DVD2 were immunoglobulins with two variable domains as documented previously. See Wu et al. (2007). Antibody 1 and Antibody 2 were both IgG1 glycoproteins. All four cell lines were of CHO DUX-B11 origin based on a dhfr (dihydrofolate reductase) expression system and cultured in chemically defined basal medias (CDBM), and fed periodically with chemically-defined feed media (CDFM). All media utilized throughout all of the experiments were chemically-defined, free of animal-component, and protein-free. […]
as §2, with “Offline pH, dissolved oxygen (DO), and pCO2 (Dissolved carbon dioxide) measurements were performed as needed with an ABL-805 (Radiometer Medical, Denmark) blood gas analyzer.” left out
as §3
To further evaluate the impact of EGCG on acidic region variants, Antibody 2 and dual variable domain immunoglobulin 1 (DVD1) were examined. Antibody 2 was evaluated in a set of shaker and lab-scale bioreactor experiments with two feed amounts (100% and 50%) as unsupplemented control conditions. […]

In the case of O=C(O[C@@H]1Cc2c(O)cc(O)cc2O[C@@H]1c1cc(O)c(O)c(O)c1)c1cc(O)c(O)c(O)c1 [EGCG, epigallocatechin gallate], the “reduction of aggregation content, relative value” (shortened to “reduction … relative value”) ([1]; 5 mg/L in feed) is reported as 9%, the “reduction … relative value” ([1]; 20 mg/L in feed) is reported as 23% and the “reduction … relative value” ([1]; 50 mg/L in feed) is reported as 44%. The “relative reduction of total acidic species content vs unsupplemented control” value (“relative reduction” below) ([2]; 0.02 g/L in feed) was 5%, the “relative reduction” value ([2]; 0.05 g/L in feed) was 10% and the “relative reduction” value ([2]; 0.1 g/L in feed) was 17%. The “relative reduction” value ([2]; 0.2 g/L in feed) was 22%, the “impact on cell culture performance (cell growth, viability, titer)” value [3] was “negligible impact on cell culture performance” and the “impact on cell culture performance (cell growth, viability, titer)” value ([4]; 0.05 and 0.1 g/L in feed) was “no negative impact on cell culture performance”. The “fold of the average titer of the unsupplemented control conditions” value ([4]; 0.1 g/L in 100% feed) was 1.22 fold and the “fold of the average titer of the unsupplemented control conditions” value ([4]; equivalent of 0.1 g/L in 50% feed) was 1.11 fold.
